Converted amounts (≈) assume the structure as drawn. “And” between values parts separate entries of the source, which are not always exact repeats. Equal entries are not always repeated. Where two headings read alike, the source gives them in different places.
Experiments:
P. aeruginosa ATCC 27853 [1] = assay: Broth microdilution MIC; assay type: cell-based, Pseudomonas aeruginosa; details: for MIC: Pseudomonas aeruginosa, ATCC27853, P. aeruginosa ATCC 27853
A. baumannii ATCC 17978 = assay: Broth microdilution MIC; assay type: cell-based; details: Acinetobacter baumannii, ATCC17978, substance alone
S. aureus ATCC 12598 = assay: Broth microdilution MIC; assay type: cell-based, Staphylococcus aureus; details: Staphylococcus aureus, ATCC12598, S. aureus ATCC 12598; substance alone; read-out: MIC
E. faecalis ATCC 29212 [2] = assay: Broth microdilution MIC; assay type: cell-based, Enterococcus faecalis; details: for MIC: Enterococcus faecalis, ATCC29212, E. faecalis ATCC 29212
S. enterica ATCC 14028 = assay: Broth microdilution MIC; assay type: cell-based; details: Salmonella enterica, ATCC14028, substance alone
Gram-negative bacteria = assay: Broth microdilution MIC, summary over Gram-negative bacteria; assay type: cell-based; details: summary in text over Gram-negative bacteria
[3] = test system: CaCo-2 (ATCC HTB-37) colon–rectal cancer cell line; assay: MTT cytotoxicity assay on CaCo-2 cells; assay type: cell-based, human; details: for IC50: Homo sapiens; for Percentage of cell growth, antibiotic / Percentage of cell growth, antibiotic + PB4 0.2 µM: CaCo-2
Protocol: To fully assess the biological activity of the new molecules, they were tested at different concentrations on the CaCo-2 (ATCC HTB-37) colon–rectal cancer cell line. These human cancer cells were exposed to compound solutions ranging in concentration from 100 µM to 0.01 µM. As a reference compound for these assays, we used 5-Fluorouracil (5-FU), a pyrimidine analog from the antimetabolite family.
The MTT assay was also performed for the selected antibiotics to evaluate the effect of their combined treatment with PB4.
To evaluate the effect of the heteroaryl ethylene compounds and the antibiotics, an MTT ([3-(4,5-dimethylthiazol-2-yl)-2,5-diphenyltetrazolium bromide]) assay was performed as previously described. […] Both concentrations were also tested in combination with PB4 0.2 µM. All antibiotics were provided by Thermo Scientific^TM Oxoid^TM, Basingstoke, UK. Twenty-four hours after plating, the cells were treated with 20 μL of each solution. Untreated cells were used as controls. […] The IC50 values were calculated by nonlinear regression analysis using GraphPad Prism 6.0 software.

[4] = test system: K. pneumoniae ATCC 700603; assay: Broth microdilution MIC; assay type: cell-based, Klebsiella pneumoniae; details: for MIC: Klebsiella pneumoniae, ATCC700603, K. pneumoniae ATCC 700603, substance alone, read-out: MIC
E. coli ATCC 25922 [5] = assay: Broth microdilution MIC; assay type: cell-based; details: Escherichia coli
Gram-positive strains = assay: Broth microdilution MIC, summary over Gram-positive strains; assay type: cell-based
S. aureus ATCC 29213 [6] = assay: Broth microdilution MIC; assay type: cell-based; details: Staphylococcus aureus, ATCC29213, S. aureus ATCC 29213
[7] = test system: S. aureus ATCC BAA-1556 USA300; assay: Broth microdilution MIC; assay type: cell-based, Staphylococcus aureus; details: Staphylococcus aureus, S. aureus ATCC BAA-1556 USA300; substance alone
E. faecalis ATCC 29212 [8] = test system: E. faecalis ATCC 29212; design: method as in earlier work; details: quality control range, ref CLSI; cited from earlier work
E. coli ATCC 25922 [9] = test system: E. coli ATCC 25922; design: method as in earlier work; details: quality control range, ref CLSI; cited from earlier work
P. aeruginosa ATCC 27853 [10] = test system: P. aeruginosa ATCC 27853; design: method as in earlier work; details: quality control range, ref CLSI; cited from earlier work
S. aureus ATCC 29213 [11] = test system: S. aureus ATCC 29213; design: method as in earlier work; details: quality control range, ref CLSI; cited from earlier work
all tested strains = assay: Broth microdilution MIC, summary over all tested strains; assay type: cell-based; details: all tested bacterial strains; antibiotic + PB4
[12] = Caco-2, 24 h, CaCo-2 cell line, MTT, 24 h of treatment, read-out: IC50 at 24 h
[13] = Caco-2, 48 h, CaCo-2 cell line, MTT, 48 h of treatment, read-out: IC50 at 48 h
[14] = ATCC25922, substance alone, read-out: MIC
[15] = quality control strain, technical positive control, read-out: MIC (quality control)

Structure (SMILES)	MIC (P. aeruginosa ATCC 27853 [1]; substance alone, read-out: MIC)	MIC (A. baumannii ATCC 17978)	MIC (S. aureus ATCC 12598)	MIC (E. faecalis ATCC 29212 [2]; substance alone, read-out: MIC)	MIC (S. enterica ATCC 14028)	IC50 [3, 12] [nM]	IC50 [3, 13] [nM]	MIC [4]	MIC (E. coli ATCC 25922 [5]; [14])	MIC (Gram-positive strains) [µg/mL]	MIC (S. aureus ATCC 29213 [6]; substance alone, read-out: MIC)	MIC [7]	other results
C[n+]1c(/C=C/c2ccc(-c3cccs3)s2)cccc1/C=C/c1ccc(-c2cccs2)s1 [GC-VI-70]	> 128 µg/mL and > 213 µM	32 µg/mL and 53.2 µM	16 µg/mL and 26.6 µM	2 µg/mL and 3.32 µM	> 128 µg/mL and > 213 µM	940	3760	> 128 µg/mL and > 213 µM	128 µg/mL and 213 µM	2 to 16	16 µg/mL and 26.6 µM	4 µg/mL and 6.65 µM	MIC values for Gram-negative bacteria (Gram-negative bacteria): high MIC values; IC50 ([3]; Caco-2, CaCo-2 cells, time not given, read-out: IC50 value on CaCo-2 cells): 320 nM
CN(C)c1ccc(/C=C/C=C/c2ccc3ccccc3[n+]2C)cc1 [GC-VII-50]	> 128 µg/mL and > 297 µM	16 µg/mL and 37.2 µM	0.25 µg/mL and 0.5 µM	8 µg/mL and 18.5 µM	> 128 µg/mL and > 297 µM	170	70	> 128 µg/mL and > 297 µM	64 µg/mL and 149 µM	0.25 to 8	0.5 µg/mL and 1.1 µM	2 µg/mL and 4.6 µM	
CNC(C)C1CCC(N)C(OC2C(N)CC(N)C(OC3OCC(C)(O)C(NC)C3O)C2O)O1 (stereo not drawn) [Gentamicin, gentamicin, reference compound]	2 µg/mL (≈ 4.19 µM)	2 µg/mL (≈ 4.19 µM)	0.5 µg/mL (≈ 1.05 µM)	4 µg/mL (≈ 8.38 µM)	1 µg/mL (≈ 2.09 µM)			8 µg/mL (≈ 16.8 µM)	0.5 µg/mL (≈ 1.05 µM)		0.5 µg/mL (≈ 1.05 µM)	0.5 µg/mL (≈ 1.05 µM)	Reduction of antibiotic MIC by PB4 (P. aeruginosa ATCC 27853 [1]; P. aeruginosa ATCC 27853, antibiotic + PB4 vs antibiotic alone): 2 -fold log MIC reductions; MIC (P. aeruginosa ATCC 27853 [1]; [15]): 2 µg/mL (≈ 4.19 µM); MIC CLSI Range (E. faecalis ATCC 29212 [8]): 4 to 16 µg/mL; MIC CLSI Range (E. coli ATCC 25922 [9]): 0.25 to 1 µg/mL; Reduction of antibiotic MIC by PB4 (E. faecalis ATCC 29212 [2]; E. faecalis ATCC 29212, antibiotic + PB4 vs antibiotic alone): 2 -fold log reduction; MIC (E. faecalis ATCC 29212 [2]; [15]): 8 µg/mL (≈ 16.8 µM); Percentage of cell growth, antibiotic ([3]; antibiotic alone at MIC for E. faecalis ATCC 29212, 24 h): 158.2%; Percentage of cell growth, antibiotic ([3]; antibiotic alone at MIC for E. faecalis ATCC 29212, 48 h): 247.5%; Percentage of cell growth, antibiotic ([3]; antibiotic alone at sub-MIC (half-MIC), 24 h): 132.3%; Percentage of cell growth, antibiotic ([3]; antibiotic alone at sub-MIC (half-MIC), 48 h): 271.7%; Percentage of cell growth, antibiotic + PB4 0.2 µM ([3]; antibiotic at MIC + PB4 0.2 µM, 24 h): 125.6%; Percentage of cell growth, antibiotic + PB4 0.2 µM ([3]; antibiotic at MIC + PB4 0.2 µM, 48 h): 141.1%; Percentage of cell growth, antibiotic + PB4 0.2 µM ([3]; antibiotic at sub-MIC + PB4 0.2 µM, 24 h): 132.4%; Percentage of cell growth, antibiotic + PB4 0.2 µM ([3]; antibiotic at sub-MIC + PB4 0.2 µM, 48 h): 99.2%; Reduction of antibiotic MIC by PB4 ([4]; K. pneumoniae ATCC 700603, antibiotic + PB4 vs antibiotic alone): 2 -fold log MIC reductions; MIC (E. coli ATCC 25922 [5]; ATCC25922, quality control strain, technical positive control, read-out: MIC (quality control)): 0.5 µg/mL (≈ 1.05 µM); MIC CLSI Range (P. aeruginosa ATCC 27853 [10]): 0.5 to 2 µg/mL; MIC CLSI Range (S. aureus ATCC 29213 [11]): 0.125 to 1 µg/mL; MIC (S. aureus ATCC 29213 [6]; [15]): 0.5 µg/mL (≈ 1.05 µM)
C[C@@H](O)[C@H]1C(=O)N2C(C(=O)O)=C(SCCN=CN)C[C@H]12 [IMI, imipenem, reference compound]	0.25 µg/mL (≈ 0.835 µM)	0.06 µg/mL (≈ 0.2 µM)			0.06 µg/mL (≈ 0.2 µM)			0.03 µg/mL (≈ 0.1 µM)	0.06 µg/mL (≈ 0.2 µM)				MIC reduction in combination with PB4 (all tested strains): no significant MIC reductions
